Source: BigSolDB 2.1

Molecule `CC(=O)[C@H]1CC[C@H]2[C@@H]3CCC4=CC(=O)CC[C@]4(C)[C@H]3CC[C@]12C` has a solubility (mole fraction) (in 1,4-dioxane, 288.15 K) of 0.0614, a solubility (mole fraction) (in 1,4-dioxane, 293.15 K) of 0.073 and a solubility (mole fraction) (in 1,4-dioxane, 298.15 K) of 0.0855. The solubility (mole fraction) (in 1,4-dioxane, 303.15 K) was 0.1, the solubility (mole fraction) (in 1,4-dioxane, 308.15 K) was 0.117 and the solubility (mole fraction) (in 1,4-dioxane, 313.15 K) was 0.136. The solubility (mole fraction) (in 1,4-dioxane, 318.15 K) was 0.156, the solubility (mole fraction) (in 1,4-dioxane, 323.15 K) was 0.179 and the solubility (mole fraction) (in THF, 278.15 K) was 0.0598. It also gave a solubility (mole fraction) (in THF, 283.15 K) of 0.0701, a solubility (mole fraction) (in THF, 288.15 K) of 0.0816 and a solubility (mole fraction) (in THF, 293.15 K) of 0.0943. It also gave a solubility (mole fraction) (in THF, 298.15 K) of 0.109, a solubility (mole fraction) (in THF, 303.15 K) of 0.125 and a solubility (mole fraction) (in THF, 308.15 K) of 0.143. For the same molecule, the solubility (mole fraction) (in THF, 313.15 K) was 0.163, the solubility (mole fraction) (in THF, 318.15 K) was 0.185 and the solubility (mole fraction) (in THF, 323.15 K) was 0.209. It also gave a solubility (mole fraction) (in acetone, 278.15 K) of 0.0143, a solubility (mole fraction) (in acetone, 283.15 K) of 0.0187 and a solubility (mole fraction) (in acetone, 288.15 K) of 0.0244. For the same molecule, the solubility (mole fraction) (in acetone, 293.15 K) was 0.0311, the solubility (mole fraction) (in acetone, 298.15 K) was 0.0397 and the solubility (mole fraction) (in acetone, 303.15 K) was 0.0494. It also gave a solubility (mole fraction) (in acetone, 308.15 K) of 0.0617, a solubility (mole fraction) (in acetone, 313.15 K) of 0.076 and a solubility (mole fraction) (in acetone, 318.15 K) of 0.094. The solubility (mole fraction) (in acetone, 323.15 K) was 0.116, the solubility (mole fraction) (in acetonitrile, 278.15 K) was 0.00716 and the solubility (mole fraction) (in acetonitrile, 283.15 K) was 0.0101. For the same molecule, the solubility (mole fraction) (in acetonitrile, 288.15 K) was 0.0131, the solubility (mole fraction) (in acetonitrile, 293.15 K) was 0.0178 and the solubility (mole fraction) (in acetonitrile, 298.15 K) was 0.0235. The solubility (mole fraction) (in acetonitrile, 303.15 K) was 0.0305, the solubility (mole fraction) (in acetonitrile, 308.15 K) was 0.0396 and the solubility (mole fraction) (in acetonitrile, 313.15 K) was 0.0508. It also gave a solubility (mole fraction) (in acetonitrile, 318.15 K) of 0.0646, a solubility (mole fraction) (in acetonitrile, 323.15 K) of 0.0816 and a solubility (mole fraction) (in ethanol, 278.15 K) of 0.00337. For the same molecule, the solubility (mole fraction) (in ethanol, 283.15 K) was 0.00455, the solubility (mole fraction) (in ethanol, 288.15 K) was 0.00623 and the solubility (mole fraction) (in ethanol, 293.15 K) was 0.00859. It also gave a solubility (mole fraction) (in ethanol, 298.15 K) of 0.0112, a solubility (mole fraction) (in ethanol, 303.15 K) of 0.0146 and a solubility (mole fraction) (in ethanol, 308.15 K) of 0.0192. The solubility (mole fraction) (in ethanol, 313.15 K) was 0.0251, the solubility (mole fraction) (in ethanol, 318.15 K) was 0.0319 and the solubility (mole fraction) (in ethanol, 323.15 K) was 0.0411. For the same molecule, the solubility (mole fraction) (in ethyl acetate, 278.15 K) was 0.0142, the solubility (mole fraction) (in ethyl acetate, 283.15 K) was 0.0175 and the solubility (mole fraction) (in ethyl acetate, 288.15 K) was 0.0215. It also gave a solubility (mole fraction) (in ethyl acetate, 293.15 K) of 0.0266, a solubility (mole fraction) (in ethyl acetate, 298.15 K) of 0.0321 and a solubility (mole fraction) (in ethyl acetate, 303.15 K) of 0.039. For the same molecule, the solubility (mole fraction) (in ethyl acetate, 308.15 K) was 0.0471, the solubility (mole fraction) (in ethyl acetate, 313.15 K) was 0.0566 and the solubility (mole fraction) (in ethyl acetate, 318.15 K) was 0.0671. For the same molecule, the solubility (mole fraction) (in ethyl acetate, 323.15 K) was 0.0802, the solubility (mole fraction) (in isopropanol, 278.15 K) was 0.00314 and the solubility (mole fraction) (in isopropanol, 283.15 K) was 0.00446. For the same molecule, the solubility (mole fraction) (in isopropanol, 288.15 K) was 0.00615, the solubility (mole fraction) (in isopropanol, 293.15 K) was 0.00841 and the solubility (mole fraction) (in isopropanol, 298.15 K) was 0.0115. For the same molecule, the solubility (mole fraction) (in isopropanol, 303.15 K) was 0.0153, the solubility (mole fraction) (in isopropanol, 308.15 K) was 0.0203 and the solubility (mole fraction) (in isopropanol, 313.15 K) was 0.0269. The solubility (mole fraction) (in isopropanol, 318.15 K) was 0.0349, the solubility (mole fraction) (in isopropanol, 323.15 K) was 0.0455 and the solubility (mole fraction) (in methanol, 278.15 K) was 0.00232. The solubility (mole fraction) (in methanol, 283.15 K) was 0.00335, the solubility (mole fraction) (in methanol, 288.15 K) was 0.00472 and the solubility (mole fraction) (in methanol, 293.15 K) was 0.00676. For the same molecule, the solubility (mole fraction) (in methanol, 298.15 K) was 0.0092, the solubility (mole fraction) (in methanol, 303.15 K) was 0.0127 and the solubility (mole fraction) (in methanol, 308.15 K) was 0.0173. For the same molecule, the solubility (mole fraction) (in methanol, 313.15 K) was 0.0234, the solubility (mole fraction) (in methanol, 318.15 K) was 0.0308 and the solubility (mole fraction) (in methanol, 323.15 K) was 0.0412. For the same molecule, the solubility (mole fraction) (in n-butanol, 278.15 K) was 0.00706, the solubility (mole fraction) (in n-butanol, 283.15 K) was 0.00947 and the solubility (mole fraction) (in n-butanol, 288.15 K) was 0.0127. It also gave a solubility (mole fraction) (in n-butanol, 293.15 K) of 0.0164, a solubility (mole fraction) (in n-butanol, 298.15 K) of 0.0211 and a solubility (mole fraction) (in n-butanol, 303.15 K) of 0.0268. The solubility (mole fraction) (in n-butanol, 308.15 K) was 0.0346, the solubility (mole fraction) (in n-butanol, 313.15 K) was 0.0439 and the solubility (mole fraction) (in n-butanol, 318.15 K) was 0.0551. The solubility (mole fraction) (in n-butanol, 323.15 K) was 0.0682, the solubility (mole fraction) (in n-heptane, 278.15 K) was 0.000112 and the solubility (mole fraction) (in n-heptane, 283.15 K) was 0.00018. The solubility (mole fraction) (in n-heptane, 288.15 K) was 0.000281, the solubility (mole fraction) (in n-heptane, 293.15 K) was 0.000425 and the solubility (mole fraction) (in n-heptane, 298.15 K) was 0.000617. The solubility (mole fraction) (in n-heptane, 303.15 K) was 0.000914, the solubility (mole fraction) (in n-heptane, 308.15 K) was 0.00135 and the solubility (mole fraction) (in n-heptane, 313.15 K) was 0.00198. It also gave a solubility (mole fraction) (in n-heptane, 318.15 K) of 0.00284, a solubility (mole fraction) (in n-heptane, 323.15 K) of 0.00402 and a solubility (mole fraction) (in n-propanol, 278.15 K) of 0.00527. The solubility (mole fraction) (in n-propanol, 283.15 K) was 0.0071, the solubility (mole fraction) (in n-propanol, 288.15 K) was 0.00969 and the solubility (mole fraction) (in n-propanol, 293.15 K) was 0.0131. It also gave a solubility (mole fraction) (in n-propanol, 298.15 K) of 0.0171, a solubility (mole fraction) (in n-propanol, 303.15 K) of 0.0227 and a solubility (mole fraction) (in n-propanol, 308.15 K) of 0.0294. It also gave a solubility (mole fraction) (in n-propanol, 313.15 K) of 0.0378, a solubility (mole fraction) (in n-propanol, 318.15 K) of 0.0485 and a solubility (mole fraction) (in n-propanol, 323.15 K) of 0.0614. It also gave a solubility (mole fraction) (in toluene, 278.15 K) of 0.0797, a solubility (mole fraction) (in toluene, 283.15 K) of 0.0907 and a solubility (mole fraction) (in toluene, 288.15 K) of 0.102. It also gave a solubility (mole fraction) (in toluene, 293.15 K) of 0.115, a solubility (mole fraction) (in toluene, 298.15 K) of 0.13 and a solubility (mole fraction) (in toluene, 303.15 K) of 0.146. For the same molecule, the solubility (mole fraction) (in toluene, 308.15 K) was 0.162, the solubility (mole fraction) (in toluene, 313.15 K) was 0.182 and the solubility (mole fraction) (in toluene, 318.15 K) was 0.203. The solubility (mole fraction) (in toluene, 323.15 K) was 0.225.
